According to patent US7049461B1, “Treatment of leukemia” (University of Central Florida, priority 2001, dated 2006):

Experiments:
mice = conditions: cited from earlier work
[1] = Solubility in organic solvents; format: physicochemical
Stability in solutions = format: physicochemical; conditions: solution heated or stored for a long time; forms OF-12
[2] = system: human leukemia cancer cells (ATCC JURK); test: Cytotoxicity assay: growth inhibition of Jurkat cells (MTS/PMS); format: cell-based; conditions: approximately 48 hours, test concentration not given
Description: The activity against leukemia cancer cells of the compounds (as earlier reported) was realized by the following procedure which determines the inhibitory effect of test samples on the growth of human leukemia cancer cells (ATCC JURK). The Jurkat cells are grown in RPMI 1640 media+10% Fetal bovine serum+1% Antibiotic/Antimycotic+1% of HEPES Buffer (1M)+1% Sodium Purivate (100 mM)+2.5% D-(+) Glucose Solution for approximately 48 hours at 37° C./5% CO2 […] compound.
Growth/Non-Growth of the cells (e.g., cell density) is determined using Promega's MTS/PMS assay system. MTS (3-(4,5-dimethylthiazol-2-yl)-5-(3-carboxymethoxyphenyl)-2-(4-sulfophenyl)-2H-tetrazolium, inner salt) is an aqueous compound that is reduced to soluble formazan by the presence of NADH formed by dehydrogenases present within the Jurkat cells. The absorbance of the formazan can be measured at 490 nm and is directly proportional to the number of living cells present in the culture. PMS (Phenazine Methosulfate) is added an electron coupling reagent and greatly increases the rate of reduction. […]
In order to establish the accuracy of this assay a Positive Control consisting of 50 μM Methotrexate should […] the net absorbance to less than 90% of the Negative Control (Jurkat cells are somewhat resistant to methotrexate) is utilized.

Solubility ([1]; in DMSO, DMFA, dichloroethane, acetonitrile)	Solubility ([1]; in hexane)	Structure (SMILES)	toxicity in mice LD50 (mice)	Stability in solutions (Stability in solutions)	percent activity against human leukemia [2]
–	–	Nc1ccn([C@@H]2O[C@H](CO)[C@@H](O)[C@@H]2O)c(=O)n1 [cytarabine]	826 mg/kg	–	–
–	–	COc1cccc2c1C(=O)c1c(O)c3c(c(O)c1C2=O)C[C@@](O)(C(C)=O)C[C@@H]3O[C@H]1C[C@H](N)[C@H](O)[C@H](C)O1 [daunorubicin]	26 mg/kg	–	–
highly soluble	insoluble	CCOc1ccc(C(=O)CC(O)(NN=C2c3ccccc3-c3ccccc32)C(=O)OC)cc1 (stereo not shown) [OF-13, 4-(4-Ethoxy-phenyl)-2-(N′-fluoren-9-ylidene-hydrazino)-2-hydroxy-4-oxo-butyric acid methyl ester]	–	not stable in solutions and decomposes quickly	97%
–	–	CCOc1ccc(C(Cl)=CC(=NN=C2c3ccccc3-c3ccccc32)C(=O)OC)cc1 [3F-19, 4-Chloro-4-(4-ethoxy-phenyl)-2-(fluoren-9-ylidene-hydrazono)-but-3-enoic acid methyl ester]	–	–	100%
